This passage reports IC50 results from ChEMBL document CHEMBL5725949, “Pyrazolopyridine derivatives and their use in therapy” (2018).

Broadly, the IC50 is the concentration at which inhibition is half-maximal.

A short description of this assay: Antitrypanosomal Activity Assay: Antitrypanosomal activity was tested on T. brucei brucei bloodstream from parasites (strain¿Lister 427, VATMITat 1.2). Stock solutions of compounds (50 mM) were prepared in DMSO. Two fold serial dilutions of each compound (10 wells in each row) were prepared in 96 well plates in HMI111 medium (100 μl/well; quadruplicates; cf. also Hirumi et al., J. Parasitol. 75 (1989), 985-989). One well without compound, and one well with media alone were included in each row. Parasites grown in HMI11 were inoculated (100 μl of 4×10^4/ml) in all wells (except the well with ¿media alone¿) giving a final concentration of parasites of 2×10^4/ml. The plates were incubated for 66 hours at 37° C. in the incubator with 5% CO2. 20 μl resazurin (Sigma, 0.125 mg/ml in Hanks Balanced Salt Solution) was added to all wells and the plate was further incubated for 6 hours. Change in color of resazurin (blue to pink) by living cells was measured with a 96 well plate reader (excitation at 530 nm, emission at 585 nm, filter cut-off: 570 nm). Percent inhibition values were calculated by setting the well without compound to ¿0% inhibition¿.
Turning to `O=C(c1nn(Cc2ccccn2)c2c1CN(Cc1ccccc1)CC2)N1CCc2ccccc2C1`, the IC50 is 9.47 µM.

As to `C=CCn1nc(C(=O)NCc2ccccc2)c2c1CCN(Cc1ccc3ncccc3c1)C2`, the IC50 is 9.57 µM. The figure for `Cc1ccccc1-c1ccc(CN2CCc3c(c(C(=O)NCc4ccccc4)nn3CCO)C2)cc1` is 2.76 µM. Regarding `O=C(NCc1cccc2ccccc12)c1nn(CCO)c2c1CN(Cc1ccc(F)c3ccccc13)CC2`, the IC50 is 34 µM.

As to `COc1ccc2cc(CN3CCc4c(c(C(=O)NCc5cccc6ccccc56)nn4CCO)C3)ccc2c1`, the IC50 was 18 µM. Take `CC(NC(=O)c1nn(CCO)c2c1CN(CC1Cc3ccccc3CN1C)CC2)c1ccccc1` (stereo not drawn): the 50% inhibitory concentration (IC50) was 13.5 µM. For the compound `COc1ccc2c(CN3CCc4c(c(C(=O)NCc5cccc6ccccc56)nn4CCO)C3)c[nH]c2c1`, the IC50 was 2.5 µM. As for `O=C(NCc1ccccc1)c1nn(CCO)c2c1CN(CC(c1ccccc1)c1ccccc1)CC2`, the figure is 5.32 µM; as for `CC(NC(=O)c1nn(CCO)c2c1CN(Cc1ccc3ccoc3c1)CC2)c1ccccc1` (stereo not drawn), 16.2 µM. As for `O=C(NCc1cccc2ccccc12)c1nn(CCO)c2c1CN(Cc1cccc3c1OCO3)CC2`, the figure is 15.9 µM. In the case of `Cc1nc2sccn2c1CN1CCc2c(c(C(=O)NCc3ccccc3)nn2CCO)C1`, the IC50 was 27.2 µM. As for `COC(=O)c1cccc2c(CN3CCc4c(c(C(=O)NCc5ccccc5)nn4CCO)C3)c[nH]c12`, the figure is 13.2 µM; as for `O=C(NCc1ccccc1)c1nn(CCO)c2c1CN(Cc1cc3ccccc3c3ccccc13)CC2`, 3.36 µM; as for `Cn1nc(C(=O)NCc2ccccc2)c2c1CCN(Cc1noc3c1CCCC3)C2`, 44.8 µM. The figure for `O=C(NCc1ccccc1)c1nn(CCO)c2c1CN(Cc1cnn(-c3ccccc3)c1)CC2` is 12.7 µM. Turning to `COc1ccc(CN2CCc3c(c(C(=O)NCc4cccc5[nH]ccc45)nn3CCO)C2)c2ccccc12`, the IC50 was 1.02 µM. As for `CC(=O)c1ccc(CN2CCc3c(c(C(=O)NCc4ccccc4)nn3CCO)C2)cc1`, the figure is 22.4 µM; as for `COc1ccc(CN2CCc3c(c(C(=O)NCc4cccc5cccnc45)nn3CCO)C2)c2ccccc12`, 2.96 µM. Take `C=C(C)C1CC=C(CN2CCc3c(c(C(=O)NCc4ccccc4)nn3CCO)C2)CC1` (stereo not drawn): the half-maximal inhibitory concentration (IC50) was 16.9 µM. As for `COc1ccc(CN2CCc3c(c(C(=O)NCc4cccc5ccccc45)nn3CCN)C2)c2c1CCCC2`, the figure is 0.57 µM. Take `Cn1nc(C(=O)NCc2ccc3ccccc3c2)c2c1CCN(Cc1c[nH]c3ccccc13)C2`: the IC50 is 2.62 µM. The figure for `O=C(NCc1cccc2ccccc12)c1nn(CCO)c2c1CN(Cc1ccc(-c3ccccc3)cc1)CC2` is 0.88 µM; for `Cc1ccc(CCN2CCc3c(c(C(=O)NCc4cccc5ccccc45)nn3CCO)C2)cc1` it is 114 µM. The figure for `O=C(NCc1cccc2ccccc12)c1nn(CCO)c2c1CN(CCc1ccccc1)CC2` is 27 µM; for `CCCc1ccc(CN2CCc3c(c(C(=O)NCc4cccc5ccccc45)nn3CCO)C2)cc1` it is 4.35 µM; for `COc1ccc(CN2CCc3c(c(C(=O)NCc4cc(F)cc5ccccc45)nn3CCO)C2)c2ccccc12` it is 11.1 µM. Consider `COc1ccc(CN2CCc3c(c(C(=O)NCc4cccc(C)c4)nn3CCO)C2)c2ccccc12`, for which the half-inhibitory concentration (IC50) was 7.69 µM. The figure for `O=C(NCc1ccccc1)c1nn(CCO)c2c1CN(Cc1ccc(OC(F)(F)F)cc1)CC2` is 12.5 µM; for `COC(=O)c1ccc2c(CN3CCc4c(c(C(=O)NCc5cccc6ccccc56)nn4CCO)C3)c[nH]c2c1` it is 2.7 µM; for `COc1ccc(CN2CCc3c(c(C(=O)NCc4cccc5ccccc45)nn3C3CCCC3)C2)c2ccccc12` it is 1.22 µM. As for `O=C(NCc1ccccc1)c1nn(CCO)c2c1CN(Cc1ccccc1C(F)(F)F)CC2`, the figure is 57.6 µM; as for `O=C(CC1CC1)N1CCc2c(c(C(=O)N3CCc4ccccc4C3)nn2Cc2ccccn2)C1`, 55.1 µM; as for `COc1cc(CN2CCc3c(c(C(=O)NCc4ccccc4)nn3CCO)C2)cc2c1OCO2`, 11 µM.

For the compound `O=C(NCc1cccc2ccccc12)c1nn(CCO)c2c1CN(Cc1cccc(-c3ccccc3)c1)CC2`, the IC50 is 1.5 µM.

On to `O=C(NCc1ccccc1)c1nn(-c2ccccc2)c2c1CN(Cc1c[nH]c3ccccc13)CC2`, for which the IC50 was 2.27 µM. As to `NCCn1nc(C(=O)NCc2cccc3ccccc23)c2c1CCN(Cc1ccc(Cl)cc1)C2`, the IC50 was 0.98 µM. As for `CCc1ccc(CN2CCc3c(c(C(=O)NCc4ccccc4)nn3CCO)C2)cc1`, the half-inhibitory concentration (IC50) is 13.6 µM. The figure for `O=C(NCc1ccccc1)c1nn(CCO)c2c1CN(Cc1ccc3c(c1)OC=CO3)CC2` is 23.3 µM; for `CC(NC(=O)c1nn(CCO)c2c1CN(C(=O)c1ncc3sccn13)CC2)c1ccccc1` (stereo not drawn) it is 50.5 µM. For the compound `O=C(NCc1ccccc1)c1nn(CCO)c2c1CN(Cc1cccc(OC(F)F)c1)CC2`, the IC50 is 19.7 µM.

`NCCn1nc(C(=O)NCc2cccc3ccccc23)c2c1CCN(Cc1ccc(Cl)c(Cl)c1)C2`: the IC50 is 1.27 µM. The figure for `O=C(NCc1ccccc1)c1nn(CCO)c2c1CN(Cc1ccc(-c3ccccc3)cc1)CC2` is 5.31 µM.

As to `COc1ccc(CN2CCc3c(c(C(=O)NCc4cccc5ccccc45)nn3-c3cnccn3)C2)c2ccccc12`, the concentration for half-maximal inhibition (IC50) is 2.59 µM. The figure for `COc1ccc(CN2CCc3nn(CCO)c(C(=O)NCc4cccc5ccccc45)c3C2)c2ccccc12` is 23.9 µM; for `CC(NC(=O)c1nn(CCO)c2c1CN(Cc1cccc3c1OCO3)CC2)c1ccccc1` (stereo not drawn) it is 17.6 µM. As for `COc1ccc(CN2CCc3c(c(C(=O)NCc4cccc5ccccc45)nn3C3CCC3)C2)c2ccccc12`, the figure is 2 µM; as for `COc1ccc2[nH]c(CN3CCc4c(c(C(=O)NCc5cccc6ccccc56)nn4CCO)C3)cc2c1`, 7 µM. The figure for `COc1ccc(CN2CCc3[nH]nc(C(=O)NCc4cccc5ccccc45)c3C2)c2ccccc12` is 1.11 µM; for `CC(NC(=O)c1nn(CCO)c2c1CN(Cc1cnn(-c3ccccc3)c1)CC2)c1ccccc1` (stereo not drawn) it is 14.5 µM.

Regarding `COc1ccc(CN2CCc3nn4c(c3C2)C(=O)N(Cc2cccc3ccccc23)CC4)c2ccccc12`, the IC50 was 4.28 µM.

For `COc1ccc(CN2CCc3c(c(C(=O)NCc4cccc5ccccc45)nn3Cc3ccccc3)C2)c2ccccc12`, the IC50 is 3.41 µM.

As for `O=C(NCc1ccccc1)c1nn(CCO)c2c1CN(Cc1cccn1-c1ccccn1)CC2`, the IC50 is 10.4 µM. With `O=C(NCc1cccc2ccccc12)c1nn(CCO)c2c1CN(Cc1cccc3cccnc13)CC2`, the IC50 is 6.43 µM. As for `COc1ccc(CN2CCc3c(c(C(=O)NCc4cccc5ccccc45)nn3CCN3CCOCC3)C2)c2ccccc12`, the figure is 0.99 µM; as for `Cn1nc(C(=O)NCc2ccccc2)c2c1CCN(Cc1c[nH]c3cc(OCc4ccccc4)ccc13)C2`, 1.7 µM; as for `Cn1nc(C(=O)NCc2ccccc2)c2c1CCN(Cc1cccc(-c3ccccc3)c1)C2`, 4.06 µM. As for `O=C(NCc1ccccc1)c1nn(CCO)c2c1CN(CC1=CC(=O)C3C=C(Cl)C=CC3O1)CC2` (stereo not drawn), the IC50 was 35.6 µM.

Turning to `Cn1nc(C(=O)NCc2cccc3ccccc23)c2c1CCN(Cc1cccc3ccccc13)C2`, the half-maximal inhibitory concentration (IC50) is 4.2 µM. As for `O=C(NCc1cccc2ccccc12)c1nn(CCO)c2c1CN(Cc1cccc3cc[nH]c13)CC2`, the figure is 4.64 µM; as for `O=C(NCc1ccccc1)c1nn(CCO)c2c1CN(Cc1ccccc1-c1ccco1)CC2`, 6.78 µM.

On to `O=C(NCc1cccc2ccccc12)c1nn(CCO)c2c1CN(Cc1ccc(C(F)(F)F)cc1)CC2`, for which the IC50 was 2.99 µM.

On to `O=C(NCc1cccc2ccccc12)c1nn(CCO)c2c1CN(Cc1c[nH]c3cc(OCc4ccccc4)ccc13)CC2`, for which the IC50 is 9.9 µM. As for `COc1ccc(CN2CCc3c(c(C(=O)NCc4cccc5ccccc45)nn3C3CN(C(=O)C(C)(C)C)C3)C2)c2ccccc12`, the figure is 1.09 µM; as for `O=C(NCc1cccc2ccccc12)c1nn(CCO)c2c1CN(Cc1c[nH]c3c(C(=O)O)cccc13)CC2`, 42.6 µM. As for `Cn1nc(C(=O)NCc2ccccc2)c2c1CCN(Cc1ccc(-c3ccccc3)cc1)C2`, the figure is 4.08 µM. In the case of `COc1ccc(CN2CCc3c(c(C(=O)NCc4cccc5ccccc45)nn3CCNC(=N)N)C2)c2ccccc12`, the IC50 was 0.22 µM. On to `COc1ccc(CN2CCc3c(c(C(=O)NCc4cccc5ccccc45)nn3CC(O)CN)C2)c2ccccc12` (stereo not drawn), for which the IC50 was 0.62 µM.

As for `COc1ccc(CN2CCc3c(c(C(=O)NCc4cccc5ccccc45)nn3-c3ccccc3)C2)c2ccccc12`, the IC50 is 0.24 µM.
